This is an account of results in patent US7108996B2, “Method for increasing luminescence assay sensitivity” (Promega Corporation, priority 2000, dated 2006).

Structures are written as SMILES. Like-named read-outs stand apart in the source and are kept apart here.

How the values of series [1] were obtained: (§1) The enzymatic luminescence measurement may have an autoluminescence component.
(§2) Format A Assays were performed in the presence of Steady Glo® reagent (SG) and Stop & Glo® reagent (S+G), (Promega Corporation, Madison Wis.). A total reaction volume of 150 μl consisted of:
(§3) 50 μl F-12 (Ham) media+1 mg/ml gelatin (with or without enzyme^1)
(§4) 50 μl S+G (containing substrate^2)
(§5) 50 μl SG ^1 Renilla luciferase enzyme was added to F-12 cell culture media containing 1% gelatin, to a concentration of approximately 2.5 ng/50 μl media. Reactions in the absence of Renilla luciferase reveal the effect of the compound on autoluminescence while reactions in the presence of enzyme reveal the effect of the compound on Renilla luciferase-catalyzed luminescence.^2 The S+G reagent was prepared as per manufacturer's instructions, with the exception that for these experiments a S+G solvent three times more concentrated than normal was used to resuspend the S+G substrate.
(§6) The compound to be tested was re-suspended in either SG or S+G reagent to a final concentration of SG or S+G of (1×). The compound was added so the final concentration in the 150 μl total volume would be that listed in Table 1 and the reagent was diluted to the a final of 50 μl with water. For controls, the SG or S+G reagent was brought up to 50 μl with water or with the solvent used to dissolve the compound of interest. For example, if a compound needed to be dissolved in DMSO (dimethyl sulphoxide), an equal volume of DMSO was added to the control reaction. Unless otherwise indicated, the compounds were first dissolved in water.
(§7) For each concentration of a particular compound, a mixture containing all of the components in sufficient amounts for four reactions (i.e. 200 μl media, 200 μl SG, 200 μl S+G) was assembled. From this mixture, 150 μl was dispensed into triplicate wells on a 96-well plate. Alternatively, reactions were sometimes assembled in each well of the plate by adding each of the 50 μl portions and mixing. The plate was incubated at 22° C. and after 5 minutes the luminescence was measured using a Dynex plate luminometer (1 second measurement per well).
(§8) a) fold-decrease in non-enzymatic autoluminescence measurement in the presence of the compound when compared to the absence of the compound and, […]

How the values of series [2] were obtained: as §1
(§9) Format B Experiments were performed in a reaction volume of 150 μl Matthew's Buffer (referred to herein as MB) as either a standard MB composition or a modified MB composition as described below. As with Format A, reactions with and without Renilla luciferase were carried out to observe the effect of the organic compounds on assay sensitivity.
(§10) 1× Matthew's buffer standard composition consists of:
(§11) In order to observe the autoluminescence enhanced only by the detergent, for the majority of the experiments, BSA was replaced with porcine gelatin as the enzyme stabilizer at a final concentration of 0.15 mg/ml or 0.45 mg/ml. Taking all the variants into account the format can be sub-divided in 4 different versions:
(§12) Reactions were carried out in triplicate by adding each of the 50 μl portions to microtiter plate wells and mixing. The resulting relative light units generated per well was measured immediately using a Dynex MLX Microtiter plate luminometer or a Wallac 1450 MicroBeta Trilux plate luminometer (1 second/well) or alternatively, the plate was incubated at 22° C. and read after 5 minutes in the same fashion.
as §8
The source holds these as a separate data set.

The target in series [3] is T1, Renilla luciferase (Renilla reniformis, UniProt P27652). Here is the method:
as §1, §9, §10, §11, §12
(§13) b) effect of the compound on enzymatic luminescence measurement in the presence of the compound when compared to control samples lacking only the compound.

The target of series [4] is T1, Renilla luciferase. The following applies: Format A. On the procedure:
as §1, §2, §3, §4, §5, §6, §7, §13

The subject of series [5] is Human embryonic kidney cells (293) stably expressing firefly luciferase (Luc+). Nature of the series: Whole cell assay: firefly luminescence as indicator of cell viability. It is filed as cell-based. Here is the method:
(§14) To determine the effect of organic compounds on cell viability and to determine the ability of such compounds to reduce autoluminescence in the presence of living cells, the following experiment was performed. Human embryonic kidney cells (293, ATCC, Rockville, Md.) were used to generate a cell line that stably expresses the firefly luciferase (Luc+) gene. This stable cell line was made using the pCl-neo vector (Promega Corporation, Madison Wis., USA) and inserting the Luc+ gene between the Xba I and Sal I sites. The stable cell line was prepared using standard methods and the transformed cells were grown in wells of a microtiter plate in the presence of DMEM medium containing 10% FBS and 0.15 mg/ml G418. For experimental purposes, duplicate plates of cells were prepared using 96 well microtiter plates. One plate was used to examine viability, and the other plate was used to examine the effect on autoluminescence.
To examine the effect of the organic compounds in cell viability, the media was removed from the cells and replaced with media containing the substrate for firefly luciferase, beetle luciferin, and the organic compounds at various concentrations. Passive diffusion of luciferin across the cell membrane together with the ATP oxygen and luciferase enzyme already contained within the cell, results in light production. Whereas, in compromised or damaged cells, intracellular ATP concentration is rapidly depleted, decreasing the firefly luminescence. The level of luminescence was compared to controls containing only luciferin to identify the effect of the compounds, if any, on light output as an indicator of cell viability.
(§15) Half of the microtiter plate contained no cells. To these wells, the same reagents were added as to the cell counterpart to measure cell-independent luminescence (i.e. background luminescence). The reagents (media with luciferin or coelenterazine, with or without compounds at various concentrations) were prepared as follows:
a) Reagent to Examine Firefly Luminescence (Cell Viability)
Luciferin substrate available from Promega Corporation, Madison Wis., USA was initially prepared in 10 mM sodium phosphate buffer, pH 7.4 as a 100 mM stock. This luciferin stock was used to make DMEM solution containing a final concentration of 2 mM luciferin.
Thiourea and 1-allyl-3-(2-hydroxyethyl)-2-thiourea were dissolved directly in this solution (DMEM/luciferin) to a final concentration of 30 mM. These were subsequently diluted to contain final compound concentrations of 10 mM and 1 mM.
Another compound 6-aza-thio-thymidine was dissolved in DMSO as a 750 mM stock. The 6-aza-thio-thymidine was subsequently added to the DMEM/luciferin reagent at a final concentration of 30 mM, 10 mM, and 1 mM, while maintaining a final DMSO concentration of 4%. A DMEM/luciferin reagent was used as the control with which to compare the effect of the compound and was also made to contain a final DMSO concentration of 4%.
Since it is believed that DMSO may help organic molecules permeat cell membranes, an additional control was included that consisted of thiourea (10 mM) reconstituted in DMSO (4%).
(§16) The cell culture medium was removed from the cells and replaced with medium containing substrate (+/−compound) and luminescence was measured immediately. […] Fold reduction in autoluminescence was calculated by dividing the background-subtracted autoluminescence in minus compound controls by the background-subtracted autoluminescence containing the compounds.

The subject of series [6] is coelenterazine autoluminescence in Human embryonic kidney cells (293). Put plainly: Whole cell assay: reduction of coelenterazine autoluminescence in the presence of living cells. It is filed as cell-based. Here is the method: as §14
To determine the ability of the organic compounds to reduce autoluminescence, the media was removed from the cells and replaced with media containing the compounds at various concentrations and coelenterazine. Since there is no Renilla luciferase enzyme being expressed in these cells, the only luminescence observed is autoluminescence. The level of autoluminescence was compared to controls containing only coelenterazine to identify the effect of the compounds on reducing autoluminescence.
as §15
b) Reagent to Examine Reduction in Autoluminescence
Coelenterazine substrate was initially dissolved in Stop & Glob Reagent Solvent (both available from Promega Corporation, Madison Wis., USA) as a 30 mM stock. This coelenterazine stock was used to make DMEM media containing 0.6 mM coelenterazine as the final concentration. DMEM/coelenterazine reagents were made in a similar fashion as the DMEM/luciferin reagents described in a).
as §16

[7] abbreviates: 10 mM compound, Format B3 (gelatin, detergent).
[8] abbreviates: 10 mM compound, Format B4 (gelatin, no detergent).
[9] abbreviates: 3 mM compound, Format B3 (gelatin, detergent).
The mark [10] stands for this setting: 3 mM compound, Format B3 with Tween-20.
Setting [11] is: 3 mM compound, Format B4 + 10 mM sodium hydrosulfate.
The mark [12] stands for this setting: 100 mM compound, Format B3 (gelatin, detergent).
[13] abbreviates: 100 mM compound, Format B4 (gelatin, no detergent).
Setting [14] is: 30 mM compound, Format B3 (gelatin, detergent).
[15] abbreviates: 30 mM compound, Format B4 (gelatin, no detergent).
The mark [16] stands for this setting: 1 mM compound, 4% DMSO in media.
[17] abbreviates: 10 mM compound, 4% DMSO in media.
Setting [18] is: 30 mM compound, 4% DMSO in media.
Where [19] appears, read: 1 mM compound, no additives to media.
The mark [20] stands for this setting: 10 mM compound, no additives to media.
[21] abbreviates: 30 mM compound, no additives to media.

T1 sequence (P27652 whole entry): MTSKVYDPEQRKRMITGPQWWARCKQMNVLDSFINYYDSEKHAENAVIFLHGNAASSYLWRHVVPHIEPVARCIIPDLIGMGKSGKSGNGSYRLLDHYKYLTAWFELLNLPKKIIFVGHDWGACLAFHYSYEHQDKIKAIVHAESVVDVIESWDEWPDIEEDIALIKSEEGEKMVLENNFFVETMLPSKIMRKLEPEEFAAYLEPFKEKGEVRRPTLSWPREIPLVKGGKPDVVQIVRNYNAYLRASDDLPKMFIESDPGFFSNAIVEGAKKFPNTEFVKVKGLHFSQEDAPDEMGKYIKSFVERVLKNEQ

Regarding `Cc1c[nH]c(=S)[nH]c1=O` [Compound 6], the Fold decrease autoluminescence turned out to be 65 fold in series [1] (32 mM compound, Format A + 17% DMSO); 660 fold in series [2] (32 mM compound, Format B3 + 33% DMSO); 120 fold in series [2] (32 mM compound, Format B4 + 33% DMSO).

Take `N#C[S-].[K+]` [K SCN]: the Fold decrease autoluminescence in series [2] (setting [7]) was 55 fold; in series [2] (setting [8]), 1.7 fold. The Effect on luminescence result at Renilla luciferase [3] (setting [7]) was “No effect”.

Compound `S=C(Nc1ccccc1)Nc1cscn1` [Compound 5] yielded a Fold decrease autoluminescence in series [1] (10 mM compound, Format A) of 115 fold.

Regarding `NC(N)=S` [Compound 1], the Fold decrease autoluminescence is on record as 15 fold in series [1] (33 mM compound, Format A); 120 fold in series [2] (setting [9]); 21.6 fold in series [2] (3 mM compound, Format B3 + 10 mM sodium hydrosulfate); 100 fold in series [2] (setting [10]); 6 fold in series [2] (3 mM compound, Format B3 with Zwittergent); 2.6 fold in series [2] (setting [11]). The Fold decrease autoluminescence in series [2] (setting [8]) stood at 2 fold; in series [2] (50 mM compound, Format B3 + 17% DMSO), 500 fold; in series [2] (50 mM compound, Format B4 + 17% DMSO) it was 15 fold; in series [2] (setting [12]) it was 290 fold; in series [2] (setting [13]), 8.5 fold; in series [2] (316 mM compound, Format B2 (BSA, no detergent)) it was 2 fold. Also, the Effect on luminescence entry at Renilla luciferase [4] (33 mM compound), on Renilla luciferase [3] (setting [9]), at Renilla luciferase [3] (setting [10]), on Renilla luciferase [3] (setting [11]) and on Renilla luciferase [3] (setting [12]) was “No effect” in each case.

For `CON=C(C(=O)O)c1csc(N)n1` [Compound 7], the values for the Fold decrease autoluminescence in series [2] (setting [14]) and in series [2] (setting [15]) were 7 fold and 6.2 fold, respectively.

For the compound `Cc1nn([C@H]2C[C@H](O)[C@@H](CO)O2)c(=S)[nH]c1=O` [6-aza-thio-thymidine], the “Effects on firefly luminescence” value is reported as “No” in series [5] (setting [16]); “No” in series [5] (setting [17]); “Yes, decreases” in series [5] (setting [18]). The entries for the “Fold Decrease in Autoluminescence” value in series [6] (setting [16]), in series [6] (setting [17]) and in series [6] (setting [18]) were 3 fold, 23 fold and 525 fold, respectively.

In the case of `CC(N)=S` [Compound 3], the Fold decrease autoluminescence in series [1] (33 mM compound, Format A) is on record as 100 fold; in series [2] (33 mM compound, Format B3 (gelatin, detergent)), 545 fold; in series [2] (33 mM compound, Format B4 (gelatin, no detergent)) it was 3.4 fold.

As to `C=CCNC(=S)NCCO` [Compound 4], the Fold decrease autoluminescence in series [1] (10 mM compound, Format A) was determined as 3 fold; in series [2] (setting [14]), 500 fold; in series [2] (setting [15]) it was 3.9 fold. At Renilla luciferase [4] (10 mM compound), the Effect on luminescence result is recorded as “No effect”.

As to `NC(N)=[Se]` [Compound 2], the Fold decrease autoluminescence in series [1] (10 mM compound, Format A) was determined as 100 fold; in series [2] (setting [7]), 70 fold. Also, the Effect on luminescence entry at Renilla luciferase [4] (10 mM compound) and on Renilla luciferase [3] (setting [7]) was “No effect” throughout.

For the compound `NC(N)=S` [thiourea], the “Effects on firefly luminescence” value in series [5] (setting [19]) is “No”; in series [5] (setting [17]), “No”; in series [5] (setting [20]), “No”; in series [5] (setting [21]), “Yes, decreases”. The “Fold Decrease in Autoluminescence” value amounted to 3.4 fold in series [6] (setting [19]), 12 fold in series [6] (setting [17]), 16 fold in series [6] (setting [20]) and 40 fold in series [6] (setting [21]).

Take `C=CCNC(=S)NCCO` [1-Allyl-3-(2-hydroxyethyl)-2-thiourea, 1-allyl-3-(2-hydroxyethyl)-2-thiourea]: the “Effects on firefly luminescence” value is given as “No” in series [5] (setting [19]); “Yes, decreases” in series [5] (setting [20]); “Yes, decreases” in series [5] (setting [21]). Further, the “Fold Decrease in Autoluminescence” value came to 3.5 fold in series [6] (setting [19]), 12 fold in series [6] (setting [20]) and 35 fold in series [6] (setting [21]).

For the compound `OC(CS)CC(O)CS` (centres unmarked) [Compound 9], the Fold decrease autoluminescence in series [2] (setting [14]) was 13 fold; in series [2] (setting [15]), 2.5 fold; in series [2] (setting [13]), 3 fold. The Effect on luminescence result on Renilla luciferase [3] (setting [15]) is recorded as “No effect”.

With `CC(=O)NC(CS)C(=O)O` (centres unmarked) [Compound 11], the Fold decrease autoluminescence in series [2] (setting [14]) was found to be 2 fold; in series [2] (setting [15]), 2.3 fold; in series [2] (setting [13]), 3.7 fold. Also, on Renilla luciferase [3] (setting [14]), the Effect on luminescence result is “No effect”.
